The test system of assay [1] is Neisseria meningitidis isolates. The assay can be described thus: Minimum inhibitory concentration, macro broth dilution, Neisseria meningitidis isolates (Test 2). The class given is cell-based. The note with it: 24 h. As to the method: Compounds were tested against five isolates of Neisseria meningitidis. […] The test procedure used was the macro broth dilutuon method in duplicate outlined by J. C. Sherris on pages 414-415. The test compounds and controls were prepared as in Test 1. Ampicillin and penicillin standards were initially diluted as described by J. C. Sherris on pages 411-412 followed by dilution with Mueller-Hinton broth.
For orientation: Dilution methods test growth across graded concentrations, often in twofold steps.

Assay [2] has as its system Mycobacterium smegmatis strains. The experiment in a line: Minimum inhibitory concentration, Mycobacterium smegmatis strains (Test 4). It counts as cell-based. Conditions: Mycolicibacterium smegmatis. As to the method: Compounds were tested against three strains of Mycobacterium smegmatis. The test procedure used was as mentioned by N. E. Morrison [Int. J. of Leprosy 39:34-43 (1971)]. The strain numbers refer to Mycobacterium smegmatis ATCC 607 (I), a DDS-resistant daughter strain (II), and a Rifampin-resistant daughter strain (III), respectively.

In assay [3] the test system is Staphylococcus aureus isolates. The experiment in a line: Minimum inhibitory concentration, macro broth dilution, Staphylococcus aureus isolates (Test 1). It counts as cell-based. The note with it: for MIC: Staphylococcus aureus, 24 h, read-out: Minimum Inhibitory Concentration. As to the method:
Compounds were tested against five isolates of Staphylococcus aureus. The bacteria used were isolated from patients at the Walter Reed Army Medical Center, Washington, D.C. […] Each compound was dissolved in Dimethyl Sulfoxide (DMSO) (12.8 mg/ml) and then diluted with Mueller-Hinton broth to obtain the desired dilutions. Tubes containing the hightest quantities of DMSO with no compound present were run as controls.

Assay [4] deals with Neisseria gonorrhoeae isolates. The experiment in a line: Minimum inhibitory concentration, agar dilution, Neisseria gonorrhoeae isolates (Test 3). Conditions: 24 h, read-out: Minimum Inhibitory Concentration. For orientation: In agar dilution the substance is mixed into plates at graded concentrations.
Experimental: Compounds were tested against 35 Neisseria gonorrhoeae isolates. The bacteria used were provided by the Department of Bacterial Diseases of the Walter Reed Amry Institute of Research. The test procedure used was the agar dilution method in duplicate as outlined by J. S. Sherris on pages 411-412. GC Medium (Difco) with a 2% defined supplement added as described by D. S. Kellogg et al [J. Bact. […] The compounds were dissolved in DMSO (1.0 mg/ml), diluted with GC broth (GC Medium without agar) to the appropriate concentration, and added to the GC Medium at 55°-56° C. The latter was then poured and allowed to solidify. A penicillin standard was also prepared with initial dilutions as described by J. C. Sherris followed by dilutions with GC broth and addition to the GC Medium at 55°-56° C. The inoculum was 1:200 CG broth dilution of a suspension of colony isolates after the suspension was adjusted visually to the turbidity standard described by J. M. Matsen and A. L. Barr on page 422 in "Manual of Clinical Microbiology," 2nd Ed., E. Lennette, E. H. Spaulding, and J. P. Truant, Ed. […] The plates were inoculated with a replicator and incubated at 37° C. under 5-10% carbon dioxide.
The test system of assay [5] is Plasmodium berghei KBG 173. The experiment in a line: In vivo antimalarial activity against Plasmodium berghei in mice (Test 5). More on the design: key: C: Mice surviving 60 days are considered cured; active: Activity is defined as a 100% increase in the mean survival time of the treated mice compared to the control group. The note with it: C (n/5) = cured of five. As to the method: Compounds were tested against Plasmodium berghei KBG 173 malaria in mice following the procedure described by T. S. Osdene, P. B. Russell, and L. Rane [J. Med. Chem. 10:431-434 (1967)]. Five mice were tested at each dosage level. Mice surviving 60 days are considered cured. Toxicity is defined as a decrease in the mean survival time of the treated mice as compared to the control group. Activity is defined as a 100% increase in the mean survival time of the treated mice compared to the control group.

Where [6] appears, read: Neisseria meningitidis isolate 7957, read-out: Minimum Inhibitory Concentration.
Setting [7] is: Neisseria meningitidis isolate 7990, read-out: Minimum Inhibitory Concentration.
Where [8] appears, read: Neisseria meningitidis isolate 8005, read-out: Minimum Inhibitory Concentration.
[9] abbreviates: Neisseria meningitidis isolate 8006, read-out: Minimum Inhibitory Concentration.
Setting [10] is: Neisseria meningitidis isolate 8011, read-out: Minimum Inhibitory Concentration.
[11] abbreviates: 24 h, DDS-resistant daughter strain (II).
[12] abbreviates: 24 h, Rifampin-resistant daughter strain (III).
Setting [13] is: ATCC607, 24 h, Mycobacterium smegmatis ATCC 607 (I).
The mark [14] stands for this setting: Staphylococcus aureus isolate V, 24 hours.
Where [15] appears, read: Staphylococcus aureus isolate II, 24 hours.
Where [16] appears, read: Staphylococcus aureus isolate III, 24 hours.
Setting [17] is: Staphylococcus aureus isolate IV, 24 hours.
[18] abbreviates: read-out: Minimum Inhibitory Concentration, Neisseria meningitidis isolate 7957.
[19] abbreviates: read-out: Minimum Inhibitory Concentration, Neisseria meningitidis isolate 7990.
[20] abbreviates: read-out: Minimum Inhibitory Concentration, Neisseria meningitidis isolate 8006.
Setting [21] is: read-out: Minimum Inhibitory Concentration, Neisseria meningitidis isolate 8011.

Converted amounts (≈) assume the structure as drawn. Where two headings read alike, the source gives them in different places. A value given as a limit tells only on which side of the number the result lay.

Regarding `CC1(C)S[C@@H]2[C@H](NC(=O)[C@H](N)c3ccccc3)C(=O)N2[C@H]1C(=O)O` [Ampicillin, reference compound], the MIC in assay [1] (setting [6]) was found to be 0.008 µg/mL (≈ 0.0229 µM); in assay [1] (setting [7]), 0.008 µg/mL (≈ 0.0229 µM); in assay [1] (setting [8]), 0.008 µg/mL (≈ 0.0229 µM); in assay [1] (setting [9]), 0.016 µg/mL (≈ 0.0458 µM); in assay [1] (setting [10]), 0.016 µg/mL (≈ 0.0458 µM).

Regarding `CC(=NNC(=S)N1CCCCCC1)c1ccc2ccccc2n1` [Compound 3F, 1-Azacycloheptane-1-thiocarboxylic Acid 2-[1-(2-quinolyl)ethylidene]-hydrazide], the MIC in assay [2] (setting [11]) was determined as 15 µg/mL (≈ 45.9 µM); in assay [2] (setting [12]), 10 µg/mL (≈ 30.6 µM); in assay [2] (setting [13]), 2.5 µg/mL (≈ 7.66 µM); in assay [3] (setting [15]) it was 16 µg/mL (≈ 49 µM); in assay [3] (setting [16]), 16 µg/mL (≈ 49 µM); in assay [3] (setting [17]), 16 µg/mL (≈ 49 µM). In addition, the MIC is 0.25 to 0.5 µg/mL (≈ 0.766 to 1.53 µM) in assay [4]; less than 0.062 µg/mL in assay [1] (setting [6]); 0.125 µg/mL (≈ 0.383 µM) in assay [1] (setting [7]); 0.25 µg/mL (≈ 0.766 µM) in assay [1] (setting [8]); 0.25 µg/mL (≈ 0.766 µM) in assay [1] (setting [9]); 0.25 µg/mL (≈ 0.766 µM) in assay [1] (setting [10]). Also, the “Minimum Inhibitory Concentration” value in assay [3] (setting [14]) was 16 µg/mL.

Consider `CC(=NNC(=S)N1CC2CCC(CC2)C1)c1ccc2ccccc2n1` [Compound 3G, 3-Azabicyclo[3.2.2]none-3-thiocarboxylic acid 2-[1-(2-quinolyl)ethylidene]hydrazide], for which the MIC in assay [2] (setting [11]) was 15 µg/mL (≈ 42.6 µM); in assay [2] (setting [12]) it was 10 µg/mL (≈ 28.4 µM); in assay [2] (setting [13]), 4 µg/mL (≈ 11.3 µM); in assay [3] it was 16 µg/mL (≈ 45.4 µM); in assay [4], 0.5 to 1 µg/mL (≈ 1.42 to 2.84 µM); in assay [1] (setting [18]), 0.125 µg/mL (≈ 0.355 µM). The MIC in assay [1] (setting [19]) was determined as 1 µg/mL (≈ 2.84 µM); in assay [1] (read-out: Minimum Inhibitory Concentration, Neisseria meningitidis isolate 8005), 1 µg/mL (≈ 2.84 µM); in assay [1] (setting [20]), 0.5 µg/mL (≈ 1.42 µM); in assay [1] (setting [21]), 0.5 µg/mL (≈ 1.42 µM). Moreover, the “Minimum Inhibitory Concentration” value in assay [3] (setting [15]), in assay [3] (setting [16]), in assay [3] (setting [17]) and in assay [3] (setting [14]) was 16 µg/mL in each case. Further, in assay [5] (160 mg/kg), the “In vivo Antimalarial Activity” value is recorded as “active”.

Consider `CC(=NNC(=S)N1CCN(c2ccccn2)CC1)c1ccc2ccccc2n1` [Compound 3H], for which the MIC was 10 µg/mL (≈ 25.6 µM) in assay [2] (setting [11]); 5 µg/mL (≈ 12.8 µM) in assay [2] (setting [12]); 2.5 µg/mL (≈ 6.4 µM) in assay [2] (setting [13]); 16 µg/mL (≈ 41 µM) in assay [3] (setting [15]); 16 µg/mL (≈ 41 µM) in assay [3] (setting [16]); 16 µg/mL (≈ 41 µM) in assay [3] (setting [17]). Moreover, the MIC in assay [4] is 0.125 to 0.5 µg/mL (≈ 0.32 to 1.28 µM); in assay [1] (setting [6]), more than 1 µg/mL; in assay [1] (setting [7]), more than 1 µg/mL; in assay [1] (setting [8]), more than 1 µg/mL; in assay [1] (setting [9]) it was more than 1 µg/mL; in assay [1] (setting [10]), more than 1 µg/mL. Also, the “Minimum Inhibitory Concentration” value in assay [3] (setting [14]) came to 16 µg/mL.

As to `CC(=NNC(=S)N1CCCC1)c1ccc2ccccc2n1` [Compound 3I, Pyrrolidine-1-thiocarboxylic acid 2-[1-(2-quinolyl)ethylidene]hydrazide], the MIC in assay [2] (setting [11]) was 3 µg/mL (≈ 10.1 µM); in assay [2] (setting [12]) it was 1.5 µg/mL (≈ 5.03 µM); in assay [2] (setting [13]), 0.6 µg/mL (≈ 2.01 µM); in assay [3] (Staphylococcus aureus isolate I, 24 hours), not above 0.25 µg/mL; in assay [3] (setting [17]), not above 0.25 µg/mL; in assay [3] (setting [14]) it was not above 0.25 µg/mL. Moreover, the MIC in assay [4] was 0.125 to 0.25 µg/mL (≈ 0.419 to 0.838 µM); in assay [1] (setting [6]), 0.062 µg/mL (≈ 0.208 µM); in assay [1] (setting [7]), 0.125 µg/mL (≈ 0.419 µM); in assay [1] (setting [8]), 0.125 µg/mL (≈ 0.419 µM); in assay [1] (setting [9]) it was 0.125 µg/mL (≈ 0.419 µM); in assay [1] (setting [10]), 0.125 µg/mL (≈ 0.419 µM).

Regarding `CCCNC(=S)NN=C(C)c1ccc2ccccc2n1` [Compound 3J, I-Propylaminothiocarboxylic acid 2-[1-(2-quinolyl)ethylidene]hydrazide], the MIC in assay [2] (setting [11]) stood at 4 µg/mL (≈ 14 µM); in assay [2] (setting [12]), 2 µg/mL (≈ 6.98 µM); in assay [2] (setting [13]), 1 µg/mL (≈ 3.49 µM).

For the compound `CC(=NNC(=S)N(CC(C)C)CC(C)C)c1ccc2ccccc2n1` [Compound 3K, Diisobutylaminothiocarboxylic acid 2-[1-(2-quinolyl)ethylidene]hydrazide], the MIC in assay [2] (setting [11]) was more than 50 µg/mL; in assay [2] (setting [12]), more than 50 µg/mL; in assay [2] (setting [13]), 10 µg/mL (≈ 28 µM); in assay [3] (setting [15]), 16 µg/mL (≈ 44.9 µM); in assay [3] (setting [16]), 16 µg/mL (≈ 44.9 µM); in assay [3] (setting [17]) it was 16 µg/mL (≈ 44.9 µM). The MIC in assay [4] was more than 1 µg/mL; in assay [1] (setting [6]), 0.125 µg/mL (≈ 0.351 µM); in assay [1] (setting [7]), 0.5 µg/mL (≈ 1.4 µM); in assay [1] (setting [8]) it was 0.5 µg/mL (≈ 1.4 µM); in assay [1] (setting [9]), 1 µg/mL (≈ 2.8 µM); in assay [1] (setting [10]) it was 0.5 µg/mL (≈ 1.4 µM). Besides, the “Minimum Inhibitory Concentration” value in assay [3] (setting [14]) amounted to 16 µg/mL. Besides, the “In vivo Antimalarial Activity” value in assay [5] (320 mg/kg) and in assay [5] (640 mg/kg) was “active” each time.

Take `Nc1ccc(S(=O)(=O)c2ccc(N)cc2)cc1` [DDS, reference compound]: the MIC in assay [2] (setting [11]) worked out at 400 µg/mL (≈ 1610 µM); in assay [2] (setting [13]) it was 2 µg/mL (≈ 8.05 µM).

With `CC1(C)S[C@@H]2[C@H](NC(=O)Cc3ccccc3)C(=O)N2[C@H]1C(=O)O` [Penicillin, reference compound], the MIC in assay [4] is 0.062 to 16 µg/mL (≈ 0.185 to 47.8 µM); in assay [1] (setting [18]) it was 0.031 µg/mL (≈ 0.0927 µM); in assay [1] (setting [19]), 0.031 µg/mL (≈ 0.0927 µM); in assay [1] (setting [20]), 0.031 µg/mL (≈ 0.0927 µM); in assay [1] (setting [21]) it was 0.031 µg/mL (≈ 0.0927 µM).

Turning to `CO[C@H]1/C=C/O[C@@]2(C)Oc3c(C)c(O)c4c(O)c(c(/C=N/N5CCN(C)CC5)c(O)c4c3C2=O)NC(=O)/C(C)=C\C=C\[C@H](C)[C@H](O)[C@@H](C)[C@@H](O)[C@@H](C)[C@H](OC(C)=O)[C@@H]1C` [Rifampin, reference compound], the MIC in assay [2] (setting [12]) turned out to be 250 µg/mL (≈ 304 µM); in assay [2] (setting [13]), 1 µg/mL (≈ 1.22 µM).

These data come from patent publication US4440771A, “2-Acetyl quinoline thiosemicarbazones useful in treatment of gonorrhea, malaria or bacterial infections” (The United States of America as represented by the …, priority 1982, dated 1984).
